Experimental data as given in patent EP4458804A1, “METHOD FOR PRODUCING AN OBJECT, PHENALEN-1-ONE COMPOUND AND USE THEREOF” (TriOptoTec GmbH, priority 2023, dated 2024).

Legend:
[1] = Comparative examples 23-25: impregnation of unsuitable plastics or with a fluorescent dye, visual evaluation; type: physicochemical; conditions: TPU Folien
Description: Die Farbstoffkonzentration in der Imprägnierlösung betrug jeweils 1 mM bei Phenalen-1-on- und Curcuminderivaten, 0,1 mM bei Prophycenderivaten.
Es wurden 0,2 mm starke Polycarbonatfolien eingesetzt und mit Imprägnierlösungen enthaltend die Photokatalysatoren F-24b, F-64a oder F-73 behandelt.
Es wurden TPU Folien eingesetzt und mit einer Imprägnierlösung enthaltend den Farbstoff 2-Chloro-6-(3-hydroxypropylamino)-1-phenalenon (CAS 113722-81-9) behandelt.

S.aureus ATCC 6538 [2] = assay: Antibacterial activity of impregnated films, modified ISO 22196 with illumination (Beispiele 11-16, 25); type: cell-based
Description: Die Bestimmung der antimikrobiellen Aktivität erfolgte nach einer modifizierten Version der ISO 22196:2011-08 ("Messung von antibakterieller Aktivität auf Kunststoff- und anderen porenfreien Oberflächen", Ausgabedatum: 2011-08).
Bei der Testdurchführung wurde ein dünner Flüssigkeitsfilm, in dem die Bakterien enthalten sind (1,25 x 10^4 /cm^2), direkt auf die Probenkörper (3 x 3 cm) aufgebracht. Direkt nach Beimpfung wurden von der Nullprobe die Bakterien von den Probenkörperoberflächen mittels Ultraschall und Vortexen abgelöst und die Keimzahl (KBE (engl. CFU), Kolonie-bildende Einheit) bestimmt (t0-Wert).
Nach 4h wurden überlebende Bakterien von den Probenkörperoberflächen mittels Ultraschall und Vortexen abgelöst und die Keimzahl bestimmt (t4-Wert).
Im Unterschied zu der in der ISO 22196:2011-08 beschreibenen Methode wurde das Inokulum nicht mit einer Folie abgedeckt und die Inkubationszeit wurde von 24 auf 4 Stunden reduziert. Weiterhin wurden die Probenkörper der Proben 3 und 4 mit Licht der Intensität 20mW/cm2 für 10min belichtet, um eine biozide Wirkung nach Bestrahlung mit elektromagnetischer Strahlung zu bestimmen.
Verwendet wurden TPU Folienstücke, die nach dem in Beispiel 4 beschriebenen Verfahren mit Rezeptur 1 behandelt wurden. Rezeptur 1 wurde hergestellt nach Beispiel 2. […] Der Test wurde in Anlehnung an ISO 22196 nach oben beschriebener Methode durchgeführt.
TPU-Folienstücke wurden ebenfalls nach dem in Beispiel 4 beschriebenen Verfahren mit verschiedenen Rezepturen behandelt, die gemäß Beispiel 2 hergestellt wurden. Die Farbstoffkonzentration in der Imprägnierlösung betrug jeweils 1 mM F-24b. Der Test wurde in Anlehnung an ISO 22196 nach oben beschriebener Methode durchgeführt.
Die Farbstoffkonzentration in der Imprägnierlösung betrug jeweils 1 mM.
Die Photokatalysator-Konzentration von F-24b wurde variiert.
Es wurde ein Bakterientest in Anlehnung an ISO 22196 nach oben beschriebener Methode durchgeführt.

[3] = Incorporation of photocatalysts into TPU films versus process time, absorption spectroscopy against blank film (Beispiele 7a-9b); type: physicochemical; conditions: Rezeptur 1
Description: Im nächsten Schritt wurde die Verwendbarkeit der verschiedene Photokatalysatorklassen, ausgewählt aus Phenalen-1-on-Derivaten, Curcumin-Derivaten und Porphycen-Derivaten, mit unterschiedlichen Eigenschaften - von neutral unpolar bis ionisch polar - auf Ihre Verwendbarkeit und Wirkung im Verfahren untersucht.
Zur Beurteilung der optimalen Prozesszeit bei Einsatz der Photokatalysatoren, wurden TPU Folienstücke nach Beschreibung in Beispiel 4 zu je 1, 2, 5 und 10 min in den Imprägnierlösungen behandelt, gegebenenfalls auch 30 und 60 min bei undeutlichen Ergebnissen.
Als Basisformulierung wurde Rezeptur 1 nach Beispiel 2 verwendet.
Nach der angegebenen Prozesszeit wurden die Folie entnommen, mit Wasser gewaschen und für 1h bei 40°C getrocknet/abgelüftet.
Die Folien wurden durch Absorptionsspektroskopie gegen ein Blank-Folienstück direkt vermessen, beim Maximum der Absorption des Photokatalysators. Dabei ergaben sich in Abhängigkeit der Prozesszeit folgende Werte, die in den Tabellen 40 bis

S.aureus ATCC 6538 [4] = assay: Antibacterial activity of impregnated films, modified ISO 22196 with illumination (Beispiele 11-16, 25); type: cell-based; conditions: Beispiel 14; TPU film; Rezeptur 1 (nach Beispiel 1); 1 mM photocatalyst in impregnation solution; light 20mW/cm2 10min
[5] = Leaching test A: screening immersion 24 h, UV-VIS of supernatant (Beispiel 10 A); type: physicochemical; parameters: Abs. nach Auswaschen: unit not given here; conditions: medium Wasser; for Berechneter Verlust in %: Rezeptur 1 nach Beispiel 1; for Abs. nach Auswaschen: Rezeptur 1 nach Beispiel 1, supernatant
Description: Um das Auswaschen der verschiedenen Farbstoffe in den Kunststofffolien zu beurteilen, wurde ein Immersionstest in deionisiertem Wasser mit einem pH-Wert von (6 ± 1) (oder gegebenenfalls anderen Lösungsmitteln) und einer Wassertemperatur von (22 ± 3) °C für 24 Stunden durchgeführt.
Dazu wurde ein Folienstück definierter Größe (3 cm x 3 cm) imprägniert (nach Rezeptur 1, Beispiel 1) und anschließend für 24 Stunden in eine definierte Menge deionisiertem Wasser (12,0 mL) gegeben und durch eine Schüttelplatte in Bewegung gehalten. Nach der angegeben Immersionszeit wurde die Folie entnommen und der Überschuss im UV-VIS Spektrometer vermessen, um die ausgewaschene Menge an Farbstoff zu bestimmen. Die Menge wird durch die definierte Größe der Folie und definierte Flüssigkeitsmenge auf einen Quadratzentimeter zurückgerechnet.
Dieser Immersionstest diente dazu, das Auswaschverhalten verschiedener Farbstoffe aus verschiedenen Kunststofffolien zu beurteilen. Weiter sollte er dabei helfen, verschiedene Farbstoffklassen oder verschiedene Farbstoffderivate einer Farbstoffklasse bezüglich dieser Charakteristik miteinander zu vergleichen.
Die zugeschnittenen Folien werden in einem geeigneten Behälter vollständig mit dem Prüfmedium (typischerweise deionisiertes Wasser) bedeckt. Anschließend wird der Behälter zugedeckt und auf die Schüttelplatte aufgebracht. Bei geringer Geschwindigkeit der Platte wird für 24 Stunden gewartet. Nach der Immersion wurden 3 mL des Überstandes durch Absorptionsspektroskopie vermessen.
Die Auswertung erfolgte über das Verhältnis der max. Absorptionswerte einer reinen Farbstofflösung definierter Konzentration und des vermessenen Überstandes. Die Ergebnisse sind in Tabelle 50 dargestellt. Tabelle 50: Auswaschverhalten verschiedener Photokatalysatoren nach Immersionstest A

[6] = Beispiel 7a neutral Phenalen-1-one, TPU film, process time 1 min, absorption at photocatalyst maximum vs blank film
[7] = Beispiel 7a neutral Phenalen-1-one, TPU film, process time 2 min
[8] = Beispiel 7a neutral Phenalen-1-one, TPU film, process time 5 min
[9] = Beispiel 7a neutral Phenalen-1-one, TPU film, process time 10 min
[10] = TPU Folie, Beispiel 8a, Tabelle 44
[11] = Beispiel 9a neutral Porphycenderivate mit Hydroxyfunktion, TPU film, process time 10 min
[12] = TPU Folie, Beispiel 7d, Tabelle 43

For `O=C1C(Cl)=Cc2ccc(NCCCO)c3cccc1c23` [2-Chloro-6-(3-hydroxypropylamino)-1-phenalenon, reference compound], which “Färbung der Folie” value ([1]; 30 min Einwirkzeit) is on record?
The value was “homogen pink gefärbte Folien”.

What about the “Entfernbarkeit der Färbung” value ([1]; Abreiben mit feuchtem Tuch, Waschen mit Wasser) of the same compound?
The value was “weder durch Abreiben mit einem feuchten Tuch noch durch Waschen mit Wasser entfernt”.

What about the “photodynamische Inaktivierung von S.aureus gegenüber den Kontrollen” value (S.aureus ATCC 6538 [2]; TPU Folien dyed with the fluorescent dye (Beispiel 25)) of the same compound?
The value was “keine photodynamische Inaktivierung”.

Which “Abs. 1 min” value [3, 6] does the source give for `COC(=O)C(C)Oc1ccc(OCC2=Cc3cccc4cccc(c34)C2=O)cc1` (stereo not drawn) [F-19a] here?
Its value is >1.

What about the “Abs. 2 min” value [3, 7] of the same compound?
Its value is >1.

What about the “Abs. 5 min” value [3, 8] of the same compound?
The value was >1.

What about the “Abs. 10 min” value [3, 9] of the same compound?
The value was >1.

For `O=C1C(S(=O)(=O)O)=Cc2cccc3cccc1c23` [F-01a], which “Log10 Reduktion Hauptprobe” value (S.aureus ATCC 6538 [4]) is on record?
The value was 1,4 ± 0,4 log10.

Which “Abs. 1 min” value [3, 6] does the source give for `O=C1C(COc2ccc(O)cc2)=Cc2cccc3cccc1c23` [F-12] here?
Its value is 0,108.

What about the “Abs. 2 min” value [3, 7] of the same compound?
The value was 0,349.

And the “Abs. 5 min” value [3, 8]?
Its value is 0,411.

And the “Abs. 10 min” value [3, 9]?
Its value is >1.

Which results are given for `CC(Oc1ccc(OCC2=Cc3cccc4cccc(c34)C2=O)cc1)C(=O)O` (stereo not drawn) [F-20a]?
Abs. 1 min [3, 6]: 0,020; Abs. 2 min [3, 7]: 0,014; Abs. 5 min [3, 8]: 0,020; Abs. 10 min [3, 9]: 0,035

For `NCCOc1ccc(/C=C/C(=O)C(C(=O)/C=C/c2ccc(OCCN)cc2)c2ccccc2)cc1` [F-64c], which “Abs. 5 min” value [3, 10] is on record?
The value was 0,61.

And the “Abs. 10 min” value [3, 10]?
The value was >1.

For `COc1cc(/C=C/C(=O)CC(=O)/C=C/c2cc(Br)c(OCCN)c(OC)c2)cc(Br)c1OCCN` [F-65], which “Log10 Reduktion Hauptprobe” value (S.aureus ATCC 6538 [4]) is on record?
Its value is 1,3 ± 0,1 log10.

And the “Abs. 1 min” value [3, 10]?
Its value is 0,08.

And the “Abs. 10 min” value [3, 10]?
Its value is 0,87.

For `NCCOc1ccc2c3c(cccc13)C=CC2=O` [F-09], which “Abs. 1 min” value [3, 6] is on record?
Its value is 0,227.

And the “Abs. 2 min” value [3, 7]?
The value was 0,158.

And the “Abs. 5 min” value [3, 8]?
The value was 0,123.

And the “Abs. 10 min” value [3, 9]?
The value was 0,263.

With `COCCC1=Cc2nc1ccc1[nH]c(cc1CCOC)c1nc(c(OC)cc3[nH]c2cc3CCOC)C(CCOC)=C1` [F-68] as the compound, how does the “Abs. 10 min” value [3, 11] read?
The value was 1,01.

And the “Abs. 30 min” value ([3]; Beispiel 9a neutral Porphycenderivate mit Hydroxyfunktion, TPU film, process time 30 min)?
The value was >1.

And the “Abs. 60 min” value ([3]; Beispiel 9a neutral Porphycenderivate mit Hydroxyfunktion, TPU film, process time 60 min)?
The value was >1.

For `COCCC1=Cc2nc1ccc1[nH]c(cc1CCOC)c1nc(c(OCCCN)cc3[nH]c2cc3CCOC)C(CCOC)=C1` [F-71], which “Abs. 1 min” value ([3]; Beispiel 9a neutral Porphycenderivate mit Hydroxyfunktion, TPU film, process time 1 min) is on record?
Its value is 0.

And the “Abs. 2 min” value ([3]; Beispiel 9a neutral Porphycenderivate mit Hydroxyfunktion, TPU film, process time 2 min)?
The value was 0.

What about the “Abs. 5 min” value ([3]; Beispiel 9a neutral Porphycenderivate mit Hydroxyfunktion, TPU film, process time 5 min) of the same compound?
Its value is 0,032.

And the “Abs. 10 min” value [3, 11]?
Its value is 0,04.

What about the “Abs. 10 min” value ([3]; Beispiel 9b cationic Porphycenderivate, TPU film, process time 10 min) of the same compound?
The value was 0,023.

What about the “Abs. 30 min” value ([3]; Beispiel 9b cationic Porphycenderivate, TPU film, process time 30 min) of the same compound?
The value was 0,062.

What about the “Abs. 60 min” value ([3]; Beispiel 9b cationic Porphycenderivate, TPU film, process time 60 min) of the same compound?
The value was 0,114.

Which “Abs. 1 min” value [3, 6] does the source give for `NCCCOc1ccc2cccc3c2c1C(=O)C=C3` [F-10] here?
The value was 0,044.

What about the “Abs. 2 min” value [3, 7] of the same compound?
The value was 0,011.

And the “Abs. 5 min” value [3, 8]?
Its value is 0,062.

What about the “Abs. 10 min” value [3, 9] of the same compound?
Its value is 0,087.

With `O=C1C=Cc2cc(S(=O)(=O)O)cc3cccc1c23` [F-01b] as the compound, how does the “Abs. 10 min” value [3, 12] read?
Its value is 0,008.

What about the “Abs. 30 min” value [3, 12] of the same compound?
Its value is 0,011.

What about the “Abs. 60 min” value [3, 12] of the same compound?
The value was 0,065.

For “9-Acetoxy-2,7,12,17-tetra-(beta-methoxyethyl)porphycen [F-66]”, which “Berechneter Verlust in %” value ([5]; plastic TPU) is on record?
The value was 2,0%.

And the “Abs. nach Auswaschen” value ([5]; plastic TPU)?
Its value is 0,021.

And the “Abs. 1 min” value ([3]; Beispiel 9a, TPU film, process time 1 min, used as 0,1 mM Lösung)?
The value was 0,008.

And the “Abs. 2 min” value ([3]; Beispiel 9a, TPU film, process time 2 min, used as 0,1 mM Lösung)?
Its value is 0,020.

And the “Abs. 5 min” value ([3]; Beispiel 9a, TPU film, process time 5 min, used as 0,1 mM Lösung)?
The value was 0,044.

And the “Abs. 10 min” value ([3]; Beispiel 9a, TPU film, process time 10 min, used as 0,1 mM Lösung)?
Its value is 0,058.

Which “Abs. 10 min” value [3, 11] does the source give for `COCCC1=Cc2nc1ccc1[nH]c(cc1CCOC)c1nc(c(OCCC(NC(=O)OC(C)(C)C)C(=O)O)cc3[nH]c2cc3CCOC)C(CCOC)=C1` (stereo not drawn) [F-78b] here?
Its value is 0,670.

Which results are given for `CCOC1=CC(=O)c2cccc3cccc1c23` [F-02]?
Berechneter Verlust in % ([5]; plastic Surlyn): 2,7%; Abs. nach Auswaschen ([5]; plastic Surlyn): 0,009; Abs. 1 min [3, 12]: 0,125; Abs. 2 min [3, 12]: 0,229; Abs. 5 min [3, 12]: 0,475; Abs. 10 min [3, 12]: 0,590

For `NCCCOC1=CC(=O)c2cccc3cccc1c23` [F-08], which “Log10 Reduktion Hauptprobe” value (S.aureus ATCC 6538 [2]; Beispiel 14, TPU film, Rezeptur 1 (nach Beispiel 1), 1 mM photocatalyst in impregnation solution, light 20mW/cm2 10min) is on record?
Its value is 4,0 ± 0,3 log10.

What about the “Abs. 1 min” value [3, 6] of the same compound?
Its value is 0,003.

What about the “Abs. 2 min” value [3, 7] of the same compound?
The value was 0,015.

What about the “Abs. 5 min” value [3, 8] of the same compound?
The value was 0,016.

What about the “Abs. 10 min” value [3, 9] of the same compound?
Its value is 0,023.
